From publication PMC5218480 (PLoS ONE, 2017)

Test system: MV-4-11 cells
Test: Gene expression microarray analysis (Affymetrix PrimeView) and GSEA
Format: cell-based, human
Set-up: RFU PODN (11730768_x_at) / Fold change /veh PODN (11730768_x_at) / RFU LINC00158 (11744669_a_at) / Fold change /veh LINC00158 (11744669_a_at) / RFU DUSP10 (11751237_a_at) / Fold change /veh DUSP10 (11751237_a_at) / RFU ID3 (11757404_x_at) / Fold change /veh ID3 (11757404_x_at) / RFU PLEKHG5 (11737974_s_at) / Fold change /veh PLEKHG5 (11737974_s_at) / RFU LRRC4B (11730491_at) / Fold change /veh LRRC4B (11730491_at) / RFU GIMAP4 (11747438_a_at) / Fold change /veh GIMAP4 (11747438_a_at) / RFU KRT8 (11758183_x_at) / Fold change /veh KRT8 (11758183_x_at) / RFU CNN1 (11734310_a_at) / Fold change /veh CNN1 (11734310_a_at) / RFU VPS37D (11726825_at) / Fold change /veh VPS37D (11726825_at) / RFU C10orf10 (11716522_x_at) / Fold change /veh C10orf10 (11716522_x_at) / RFU KIR2DL2 /// KIR2DL4 /// KIR2DL5A /// KIR2DL5B /// KIR2DS1 /// KIR2DS2 /// KIR2DS3 /// KIR2DS4 /// KIR3DL3 /// KIR3DL3 /// KIR3DS1 (11738374_at) / Fold change /veh KIR2DL2 /// KIR2DL4 /// KIR2DL5A /// KIR2DL5B /// KIR2DS1 /// KIR2DS2 /// KIR2DS3 /// KIR2DS4 /// KIR3DL3 /// KIR3DL3 /// KIR3DS1 (11738374_at) / RFU C1QL1 (11718748_at) / Fold change /veh C1QL1 (11718748_at) / RFU TMPRSS4 (11747572_a_at) / Fold change /veh TMPRSS4 (11747572_a_at) / RFU HAMP (11756126_x_at) / Fold change /veh HAMP (11756126_x_at) / RFU RNFT2 (11725882_a_at) / Fold change /veh RNFT2 (11725882_a_at) / RFU NR4A2 (11747474_a_at) / Fold change /veh NR4A2 (11747474_a_at) / RFU ABCC12 (11746883_a_at) / Fold change /veh ABCC12 (11746883_a_at) / RFU TMEM136 (11760407_x_at) / Fold change /veh TMEM136 (11760407_x_at) / RFU CLDN22 /// WWC2 (11732394_at) / Fold change /veh CLDN22 /// WWC2 (11732394_at) / RFU HLA-DPB1 (11760878_x_at) / Fold change /veh HLA-DPB1 (11760878_x_at) / RFU SPINT1 (11716480_a_at) / Fold change /veh SPINT1 (11716480_a_at) / RFU GAP43 (11754022_s_at) / Fold change /veh GAP43 (11754022_s_at) / RFU A4GNT (11735810_at) / Fold change /veh A4GNT (11735810_at) / RFU PRB3 (11715151_x_at) / Fold change /veh PRB3 (11715151_x_at) / RFU TUBB4B (11761932_at) / Fold change /veh TUBB4B (11761932_at) / RFU CAPN14 (11732068_a_at) / Fold change /veh CAPN14 (11732068_a_at) / RFU TMCC2 (11721928_a_at) / Fold change /veh TMCC2 (11721928_a_at) / RFU IRGQ (11745062_a_at) / Fold change /veh IRGQ (11745062_a_at) / RFU FAM174B (11720279_a_at) / Fold change /veh FAM174B (11720279_a_at) / RFU TMPRSS4 (11748680_a_at) / Fold change /veh TMPRSS4 (11748680_a_at) / RFU FAM212B (11763350_a_at) / Fold change /veh FAM212B (11763350_a_at) / RFU PLEKHG5 (11743358_a_at) / Fold change /veh PLEKHG5 (11743358_a_at) / RFU ZSCAN30 (11745921_a_at) / Fold change /veh ZSCAN30 (11745921_a_at) / RFU CMKLR1 (11741424_a_at) / Fold change /veh CMKLR1 (11741424_a_at) / RFU LOC101060620 /// MAPK8IP1 (11723275_at) / Fold change /veh LOC101060620 /// MAPK8IP1 (11723275_at) / RFU SPTSSB (11747773_x_at) / Fold change /veh SPTSSB (11747773_x_at) / RFU PRSS12 (11739890_at) / Fold change /veh PRSS12 (11739890_at) / RFU BIN1 (11741810_x_at) / Fold change /veh BIN1 (11741810_x_at) / RFU WNT11 (11732464_a_at) / Fold change /veh WNT11 (11732464_a_at) / RFU C10orf10 (11716521_a_at) / Fold change /veh C10orf10 (11716521_a_at) / RFU C5orf56 (11738089_at) / Fold change /veh C5orf56 (11738089_at) / RFU CYB561 (11721691_x_at) / Fold change /veh CYB561 (11721691_x_at) / RFU ANKRD19P (11752326_a_at) / Fold change /veh ANKRD19P (11752326_a_at) / RFU OR2T12 /// OR2T33 /// OR2T8 (11738714_s_at) / Fold change /veh OR2T12 /// OR2T33 /// OR2T8 (11738714_s_at) / RFU VCAN (11748164_a_at) / Fold change /veh VCAN (11748164_a_at) / RFU JSRP1 (11732532_at) / Fold change /veh JSRP1 (11732532_at) / RFU KRTAP10-11 (11738290_x_at) / Fold change /veh KRTAP10-11 (11738290_x_at) / RFU MYO3A (11730013_a_at) / Fold change /veh MYO3A (11730013_a_at) / RFU EBF3 (11725865_a_at) / Fold change /veh EBF3 (11725865_a_at) / RFU CAMK2N1 (11719241_x_at) / Fold change /veh CAMK2N1 (11719241_x_at) / RFU C5orf56 (11738088_a_at) / Fold change /veh C5orf56 (11738088_a_at) / RFU OLFML3 (11715873_a_at) / Fold change /veh OLFML3 (11715873_a_at) / RFU LOC100653217 /// NTM (11731650_a_at) / Fold change /veh LOC100653217 /// NTM (11731650_a_at) / RFU MAPK11 (11762145_a_at) / Fold change /veh MAPK11 (11762145_a_at) / RFU FIZ1 (11724087_x_at) / Fold change /veh FIZ1 (11724087_x_at) / RFU OASL (11726364_x_at) / Fold change /veh OASL (11726364_x_at) / RFU SOX15 (11748057_x_at) / Fold change /veh SOX15 (11748057_x_at) / RFU CD79A (11719716_a_at) / Fold change /veh CD79A (11719716_a_at) / RFU HIST1H1D (11736915_at) / Fold change /veh HIST1H1D (11736915_at) / RFU CASKIN2 (11723855_a_at) / Fold change /veh CASKIN2 (11723855_a_at) / RFU LOC730098 (11760151_x_at) / Fold change /veh LOC730098 (11760151_x_at) / RFU OR4N2 (11742367_at) / Fold change /veh OR4N2 (11742367_at) / RFU PRRT2 (11749266_a_at) / Fold change /veh PRRT2 (11749266_a_at) / RFU SNX32 (11753110_a_at) / Fold change /veh SNX32 (11753110_a_at) / RFU CDHR5 (11726645_a_at) / Fold change /veh CDHR5 (11726645_a_at) / RFU RCAN1 (11760418_a_at) / Fold change /veh RCAN1 (11760418_a_at) / RFU FAM167A (11723789_a_at) / Fold change /veh FAM167A (11723789_a_at) / RFU FAM26E (11764081_at) / Fold change /veh FAM26E (11764081_at) / RFU ISYNA1 (11749810_s_at) / Fold change /veh ISYNA1 (11749810_s_at) / RFU ACY1 (11761880_at) / Fold change /veh ACY1 (11761880_at) / RFU 11764098_at / Fold change /veh 11764098_at / RFU SAMD14 (11745864_x_at) / Fold change /veh SAMD14 (11745864_x_at) / RFU NPB (11741838_a_at) / Fold change /veh NPB (11741838_a_at) / RFU TMPRSS6 (11731388_a_at) / Fold change /veh TMPRSS6 (11731388_a_at) / RFU KRTAP10-2 (11738614_at) / Fold change /veh KRTAP10-2 (11738614_at) / RFU ARHGAP8 /// PRR5-ARHGAP8 (11727945_x_at) / Fold change /veh ARHGAP8 /// PRR5-ARHGAP8 (11727945_x_at) / RFU KRTAP5-7 /// NADSYN1 (11734609_at) / Fold change /veh KRTAP5-7 /// NADSYN1 (11734609_at) / RFU RASL12 (11751679_a_at) / Fold change /veh RASL12 (11751679_a_at) / RFU CDKN2B (11736163_a_at) / Fold change /veh CDKN2B (11736163_a_at) / RFU PRF1 (11729649_at) / Fold change /veh PRF1 (11729649_at) / RFU, ZNF638 /// ZNF638-IT1 / Fold change vs veh, ZNF638 /// ZNF638-IT1 / RFU, PANK3 / Fold change vs veh, PANK3 / RFU, SH3YL1 / Fold change vs veh, SH3YL1 / RFU, ZEB2 / Fold change vs veh, ZEB2 / RFU, NRIP1 / Fold change vs veh, NRIP1 / RFU, PTTG1IP / Fold change vs veh, PTTG1IP / RFU, CAPN2 / Fold change vs veh, CAPN2 / RFU, MED14 / Fold change vs veh, MED14 / RFU, SNORA58 / Fold change vs veh, SNORA58 / RFU, C1orf63 / Fold change vs veh, C1orf63 / RFU, LRRFIP1 / Fold change vs veh, LRRFIP1 / RFU, NDUFAF7 / Fold change vs veh, NDUFAF7 / RFU, SLC12A2 / Fold change vs veh, SLC12A2 / RFU, IBTK / Fold change vs veh, IBTK / RFU, ESF1 / Fold change vs veh, ESF1 / Fold change vs veh, TMEM50B / RFU, TAOK1 / Fold change vs veh, TAOK1 / RFU, ACBD3 / Fold change vs veh, ACBD3 / RFU, TMA16 / Fold change vs veh, TMA16 / RFU, RWDD3 / Fold change vs veh, RWDD3 / RFU, BCAT1 / Fold change vs veh, BCAT1 / RFU, EDEM3 / Fold change vs veh, EDEM3 / RFU, TMEM33 / Fold change vs veh, TMEM33 / RFU, WDR75 / Fold change vs veh, WDR75 / RFU, AHCTF1 / Fold change vs veh, AHCTF1 / RFU, TFRC / Fold change vs veh, TFRC / RFU, ZDHHC17 / Fold change vs veh, ZDHHC17 / RFU, NOM1 / Fold change vs veh, NOM1 / RFU, ARL8B / Fold change vs veh, ARL8B / RFU, ZBTB11 / Fold change vs veh, ZBTB11 / RFU, TAMM41 / Fold change vs veh, TAMM41 / RFU, KIAA1704 /// LOC100996395 / Fold change vs veh, KIAA1704 /// LOC100996395 / RFU, ING1 / Fold change vs veh, ING1 / RFU, TRMT61B / Fold change vs veh, TRMT61B / RFU, FUBP3 / Fold change vs veh, FUBP3 / RFU, TP53 / Fold change vs veh, TP53 / RFU, TNKS2 / Fold change vs veh, TNKS2 / RFU, ZFP14 / Fold change vs veh, ZFP14 / RFU, ACTR2 / Fold change vs veh, ACTR2 / RFU, PPP3R1 / Fold change vs veh, PPP3R1 / RFU, PIK3R1 / Fold change vs veh, PIK3R1 / RFU, HNRNPA1 / Fold change vs veh, HNRNPA1 / RFU, RNF170 / Fold change vs veh, RNF170 / RFU, ZNF28 / Fold change vs veh, ZNF28 / RFU, RNGTT / Fold change vs veh, RNGTT / RFU, OGT / Fold change vs veh, OGT / RFU, BRD1 / Fold change vs veh, BRD1 / RFU, MARS / Fold change vs veh, MARS / RFU, ZNF655 / Fold change vs veh, ZNF655 / RFU, FAHD1 / Fold change vs veh, FAHD1 / RFU, BDP1 / Fold change vs veh, BDP1 / RFU, LRRCC1 / Fold change vs veh, LRRCC1 / RFU, ARID1A / Fold change vs veh, ARID1A / RFU, ZNF146 / Fold change vs veh, ZNF146 / RFU, ZNF330 / Fold change vs veh, ZNF330 / RFU, GPN3 / Fold change vs veh, GPN3 / RFU, C9orf123 / Fold change vs veh, C9orf123 / RFU, N4BP2L2 / Fold change vs veh, N4BP2L2 / RFU, ARFIP1 / Fold change vs veh, ARFIP1 / RFU, FAM179B / Fold change vs veh, FAM179B / RFU, BCL10 / Fold change vs veh, BCL10 / RFU, UHRF1BP1L / Fold change vs veh, UHRF1BP1L / RFU, BET1 / Fold change vs veh, BET1 / RFU, CNOT2 / Fold change vs veh, CNOT2 / RFU, ZNF268 / Fold change vs veh, ZNF268 / Fold change vs veh, ZNF507 / RFU, DGCR2 / Fold change vs veh, DGCR2 / RFU, WDSUB1 / Fold change vs veh, WDSUB1 / Fold change vs veh, HSP90B1 /// MIR3652 / RFU, ADSS / Fold change vs veh, ADSS / RFU, GK / Fold change vs veh, GK / RFU, ZNF148 / Fold change vs veh, ZNF148 / RFU, TAF9 / Fold change vs veh, TAF9 / RFU, SLC1A5 / Fold change vs veh, SLC1A5 / RFU, SLMO2 / Fold change vs veh, SLMO2 / RFU, ABCC4 / Fold change vs veh, ABCC4 / RFU, LOC101060439 /// RAP1B / Fold change vs veh, LOC101060439 /// RAP1B / RFU, RFX7 / Fold change vs veh, RFX7 / RFU, GTPBP10 / Fold change vs veh, GTPBP10 / RFU, CNEP1R1 / Fold change vs veh, CNEP1R1 / RFU, BIVM-ERCC5 /// ERCC5 / Fold change vs veh, BIVM-ERCC5 /// ERCC5 / RFU, ILF3 / Fold change vs veh, ILF3 / RFU 11762660_at / Fold change /veh 11762660_at / RFU VCAN (11757783_s_at) / Fold change /veh VCAN (11757783_s_at) / RFU DDX43 (11728927_at) / Fold change /veh DDX43 (11728927_at) / RFU KRT8 (11758188_x_at) / Fold change /veh KRT8 (11758188_x_at) / RFU NKD1 (11759106_at) / Fold change /veh NKD1 (11759106_at) / RFU SRD5A1 (11742802_a_at) / Fold change /veh SRD5A1 (11742802_a_at) / RFU TPSAB1 /// TPSB2 (11721975_s_at) / Fold change /veh TPSAB1 /// TPSB2 (11721975_s_at) / RFU GSTM3 (11746129_a_at) / Fold change /veh GSTM3 (11746129_a_at) / RFU IL23R (11737362_x_at) / Fold change /veh IL23R (11737362_x_at) / RFU TMEM51 (11727254_a_at) / Fold change /veh TMEM51 (11727254_a_at) / RFU PIWIL2 (11732686_x_at) / Fold change /veh PIWIL2 (11732686_x_at) / RFU ORM1 (11744905_x_at) / Fold change /veh ORM1 (11744905_x_at) / RFU CCDC152 (11743942_at) / Fold change /veh CCDC152 (11743942_at) / RFU ECM1 (11717891_a_at) / Fold change /veh ECM1 (11717891_a_at) / RFU IL23R (11748794_a_at) / Fold change /veh IL23R (11748794_a_at) / RFU TNFAIP8L3 (11732012_x_at) / Fold change /veh TNFAIP8L3 (11732012_x_at) / RFU MBOAT4 (11741988_at) / Fold change /veh MBOAT4 (11741988_at) / RFU 11764193_at / Fold change /veh 11764193_at / RFU TMEM53 (11763286_at) / Fold change /veh TMEM53 (11763286_at) / RFU MAGEB2 (11727129_at) / Fold change /veh MAGEB2 (11727129_at) / RFU TMEM200A (11744735_a_at) / Fold change /veh TMEM200A (11744735_a_at) / RFU CCDC152 (11751479_a_at) / Fold change /veh CCDC152 (11751479_a_at) / RFU FAM211A (11726209_a_at) / Fold change /veh FAM211A (11726209_a_at) / RFU RGS16 (11746705_a_at) / Fold change /veh RGS16 (11746705_a_at) / RFU VCAN (11755009_s_at) / Fold change /veh VCAN (11755009_s_at) / RFU RHOB (11743442_s_at) / Fold change /veh RHOB (11743442_s_at) / RFU RGS16 (11720943_a_at) / Fold change /veh RGS16 (11720943_a_at) / RFU RGS16 (11720944_at) / Fold change /veh RGS16 (11720944_at) / RFU, VPS4B / Fold change vs veh, VPS4B / RFU, CREB1 / Fold change vs veh, CREB1 / RFU, DNAJC13 / Fold change vs veh, DNAJC13 / RFU, GNAQ / Fold change vs veh, GNAQ / RFU, CDK5R1 / Fold change vs veh, CDK5R1 / RFU, ZRANB3 / Fold change vs veh, ZRANB3 / RFU, CUL4A / Fold change vs veh, CUL4A / RFU, CCNY / Fold change vs veh, CCNY / RFU, UFL1 / Fold change vs veh, UFL1 / RFU, COG3 / Fold change vs veh, COG3 / RFU, DIAPH2 / Fold change vs veh, DIAPH2 / RFU, SKA2 / Fold change vs veh, SKA2 / RFU, AFF3 / Fold change vs veh, AFF3 / RFU, LMF1 / Fold change vs veh, LMF1 / RFU, IPO11 / Fold change vs veh, IPO11 / RFU, DFFB / Fold change vs veh, DFFB / RFU, FOXP1 / Fold change vs veh, FOXP1 / RFU, CARD8 / Fold change vs veh, CARD8 / RFU, STRN3 / Fold change vs veh, STRN3 / RFU, ADK / Fold change vs veh, ADK / RFU, RASSF2 / Fold change vs veh, RASSF2 / RFU, WIPF1 / Fold change vs veh, WIPF1 / RFU, LARP1B / Fold change vs veh, LARP1B / RFU, RASA1 / Fold change vs veh, RASA1 / RFU, RB1 / Fold change vs veh, RB1 / RFU, PPFIA1 / Fold change vs veh, PPFIA1 / RFU, MAT2A / Fold change vs veh, MAT2A / RFU, CCT5 / Fold change vs veh, CCT5 / RFU, WDR92 / Fold change vs veh, WDR92 / RFU, CUX1 / Fold change vs veh, CUX1 / RFU, TTC7A / Fold change vs veh, TTC7A / RFU, TMEM135 / Fold change vs veh, TMEM135 / RFU, DEPTOR / Fold change vs veh, DEPTOR / RFU, CPM / Fold change vs veh, CPM / RFU, DNAJB6 / Fold change vs veh, DNAJB6 / RFU, CACNA2D3 / Fold change vs veh, CACNA2D3 / RFU, DTX4 / Fold change vs veh, DTX4 / RFU, TFCP2 / Fold change vs veh, TFCP2 / RFU, GMCL1 /// GMCL1P1 / Fold change vs veh, GMCL1 /// GMCL1P1 / RFU, AEBP2 / Fold change vs veh, AEBP2 / RFU, SNHG1 /// SNORD22 /// SNORD25 /// SNORD26 /// SNORD27 /// SNORD28 /// SNORD29 /// SNORD31 / Fold change vs veh, SNHG1 /// SNORD22 /// SNORD25 /// SNORD26 /// SNORD27 /// SNORD28 /// SNORD29 /// SNORD31 / Fold change (Aza/veh), C12orf56 (ProbeSet 11735607_a_at) / Fold change (ACY-1035/veh), C12orf56 (ProbeSet 11735607_a_at) / Fold change (Aza/veh), FGFR1OP (ProbeSet 11751329_s_at) / Fold change (ACY-1035/veh), FGFR1OP (ProbeSet 11751329_s_at) / Fold change (Aza/veh), VPS36 (ProbeSet 11739960_a_at) / Fold change (ACY-1035/veh), VPS36 (ProbeSet 11739960_a_at) / RFU SYPL1 (11715823_x_at) / Fold change /veh SYPL1 (11715823_x_at) / RFU IGFBP7 (11715501_s_at) / Fold change /veh IGFBP7 (11715501_s_at) / RFU REEP3 (11722064_at) / Fold change /veh REEP3 (11722064_at) / RFU IGLL1 (11728026_x_at) / Fold change /veh IGLL1 (11728026_x_at): dose or concentration left out as unconfirmed
Details: MV-4-11 cells, 48 hours

Nc1ccc(-c2cccs2)cc1NC(=O)c1ccc2c(c1)cc(C1CC1)n2CCN1CCOCC1 [ACY-1035]
Fold change /veh ANKRD19P (11752326_a_at): 1.02
